Data on ten compounds can be found in patent US20120107428A1, “REPELLENTS FOR PESTIFEROUS SOCIAL WASPS” (Sterling International Inc., priority 2010, published 2012).

The subject of assay [1] is Yellowjackets (mainly Vespula pensylvanica (ca. 90%), plus V. vulgaris, V. germanica, and Dolichovespula maculata). Kind of assay: Field trapping, Rescue W•H•Y traps baited with attractant AA/2MB: captures of yellowjackets. The format is in vivo. The settings on record: N 9. How it is done:
(§1) Eleven field trapping experiments were carried out from late August to mid-October 2009 in residential and woody areas around Spokane, Wash., USA, mostly using the trap known by the designation Rescue® W•H•Y (except on one occasion that Rescue® Reusable Yellowjacket Traps were used for a natural food attractant; see below for details). The commercial W•H•Y trap has a top chamber and a bottom chamber and is described in U.S. Patent Application Publication No. 2009/0151228. The top chamber is baited with two attractants—one of which is a solid contained in a vial (2-methyl-1-butanol), and the other is a liquid mixed with water (acetic acid). The bottom chamber is baited with a liquid attractant (heptyl butyrate) poured onto a cotton pad. Separation of the two types of attractants (otherwise antagonistic to each other when released from the same chamber) in two chambers creates two focal attraction sources from one trap for different species of wasps, hornets, and yellowjackets. […] In a special occasion, the commercial Rescue® Reusable Yellowjacket Traps were each baited with 10 g of chopped bacon (loaded into a cartridge) as a natural protein food attractant. Traps were hung 1.5-2.0 m above the ground on either fences or tree branches ca. 5 m apart between each trap and at least 15 m between sets. For each trapping experiment, three sets of traps (i.e., three physical replicates of each treatment) were deployed with their initial trap positions within each set being randomized. To minimize positional effects and obtain more replications, wasp collections and trap re-randomization were carried out when 5-10 wasps were caught in the best traps. Each replicate lasted several days depending on wasp flight activity. Captured wasps were removed from the traps and kept in the zip-bags before returning to the laboratory for recording of the species, gender status, and catch. Repellent candidates (individuals or mixtures) were released from polyethylene bags (3×5 cm; with a fabric felt) with various thicknesses from 2-12 mil (see release rates listed in tables); they were employed inside the same trap chamber as the attractant.
(§2) Experiment 1 tested five individual essential oils (pennyroyal, lemongrass, peppermint, clove, and citronella) and two known mosquito repellents (i.e., major components of catnip oil), E/Z-nepetalactone and Z/E-nepetalactone plus a blank control against a mixture of attractant [acetic acid (AA) and 2-methyl-1-butanol (2 MB)] using the W•H•Y traps (both attractant and repellent candidates were released from the top chamber) from for eight consecutive days from August to early September. Experiment 2 tested nine individual essential oils (ylang ylang, vetiver, myrrh, patchouli, geranium, eucalyptus, camphor, spearmint, and wintergreen) plus a blank control against a mixture of attractant (AA+2 MB) using the W•H•Y traps (both attractant and repellent candidates were released from the top chamber) for eight consecutive days from late August to early September. Experiment 3 tested seven individual essential oils (Roman chamomile, sage, fennel seed, rosemary, thyme, anise, and lavender) plus a blank control against a mixture of attractant (AA+2 MB) using the W•H•Y traps (both attractant and repellent candidates were released from the top chamber) for eight consecutive days from late August to early September. Experiment 4 tested two essential oil mixtures (3EO-mix: clove, geranium, and lemongrass in ca. 1:1:1 ratio; and 4EO-mix: clove, geranium, lemongrass, and rosemary in ca. 1:1:1:1 ratio) plus a blank control against a mixture of attractant (AA+2 MB) using the W•H•Y traps (both attractant and repellent candidates were released from the top chamber) for 13 consecutive days in September; the essential oil mixtures alone without attractant were tested in the same experiment.

Assay [2] concerns Paper wasps (mainly Polistes dominulus, plus a few of P. aurifer). Put plainly: Field trapping, Rescue W•H•Y traps baited with attractant AA/2MB: captures of paper wasps. The format is in vivo. The settings on record: N 9. As for the experimental part:
as §1, §2

Assay [3] has as its system vespid wasps (paper wasps, hornets and yellowjackets). Put plainly: Field trapping experiments, repellency stated for vespid wasps as a whole (yellowjackets and paper wasps; summaries). The format is in vivo, Vespula pensylvanica; Polistes dominulus. The settings on record: for repellency on either yellowjackets or paper wasps or both to the attractant AA/2 MB: Experiments 1-3, late August to early September; for activity at doses tested: Experiment 9. How it is done:
as §1, §2

The subject of assay [4] is worker antennae of Vespula pensylvanica, Dolichovespula maculata, Polistes dominulus, and P. aurifer. Kind of assay: GC-EAD/MS analysis of SPME headspace samples of essential oils: antennal responses. Particulars: for antennal (EAD) response to component of rosemary oil: V. pensylvanica and D. maculata antennae, FIG. 3. As for the experimental part:
Headspace volatiles from greater than 10 types of essential oils (1 ml each in a closed 20 ml glass vial) were sampled via Solid-Phase Micro-Extraction (SPME) (CAR/PDMS, 85 μm, Supelco, Bellefonte, Pa.) for 20-30 sec before GC-EAD and GC-MS analyses.
Paper wasp [European paper wasp (Polistes dominulus) or golden paper wasp (P. aurifer)] and yellowjacket [Western yellowjacket (Vespula pensylvanica) or Bald-faced hornet (Dolichovespula maculata)] workers for electrophysiological study were collected from their nests and kept alive at 4° C. before testing.
SPME samples of the various essential oils were injected splitless into a Varian CP-3800 GC equipped with a polar column (HP-INNOWAX; 30 m×0.53 mm×1.0 μm film thickness; Agilent Technologies, Wilmington, Del., USA) and a 1:1 effluent splitter that allowed simultaneous flame ionization detection (FID) and electroantennographic detection (EAD) of either a yellowjacket or paper wasp worker antenna to the separated volatile compounds. Helium was used as the carrier gas, and the injector and detector temperatures were 250° C. and 300° C., respectively. Column temperature was 50° C. for 1 min, rising to 240° C. at 10° C./min, and then held for 10 min. The outlet for the EAD was held in a humidified air stream flowing at 0.5 m/sec over the antennal preparation. EAD recordings were made using silver wire-glass capillary electrodes filled with Beadle-Ephrussi Ringer on freshly cut antennae. The antennal signals were stored and analyzed on a PC equipped with a serial IDAC interface box and the program EAD ver. 2.5 (Syntech, Hilversum, The Netherlands).
Compounds were identified by comparison of retention times with those of authentic standards and with mass spectra of standards.

[5] abbreviates: Table 1, Experiment 1, attractant AA/2MB alone (row AA/2MB) or plus essential oil/chemical in same trap chamber, eight days late August to early September.
The mark [6] stands for this setting: Table 8, Experiment 9, attractant AA/2MB alone (row AA/2MB) or plus chemical, 13 days in September.
The mark [7] stands for this setting: V. pensylvanica, D. maculata, P. dominulus, or P. aurifer antennae.
[8] abbreviates: Table 10, Experiment 11, attractant AA/2MB alone (row AA/2MB) or plus chemical, 16 days in October.
The mark [9] stands for this setting: V. pensylvanica and P. dominulus worker antennae.
The mark [10] stands for this setting: Table 9, Experiment 10, attractant AA/2MB alone (row AA/2MB) or plus chemical, 18 days end of September through mid-October.

Consider E/Z-nepetalactone [EZ-Neptalactone], for which the “Mean/trap/visit ± SE Yellowjackets” value in assay [1] (setting [5]) was 11.2 ± 3.6 b wasps/trap/visit. Further, the “Mean/trap/visit ± SE Paper wasps” value in assay [2] (setting [5]) stood at 3.2 ± 1.1 bc wasps/trap/visit. For the same compound, the “repellency on either yellowjackets or paper wasps or both to the attractant AA/2 MB” value in assay [3] is given as “partially significant repellency”.

Turning to `CC(C)=CCCC(C)CCO` (stereo not drawn) [β-Citronellol, β-citronellol], in assay [1] (setting [6]), the “Mean/trap/visit ± SE Yellowjackets” value was 36.2 ± 6.8 b wasps/trap/visit. Moreover, the “Mean/trap/visit ± SE Paper wasps” value in assay [2] (setting [6]) was 5.1 ± 1.6 b wasps/trap/visit. In addition, the “antennal (EAD) response to component of geranium oil” value in assay [4] (setting [7]) was “significant and consistent EAD-responses”. In addition, in assay [3] (AA/2 MB), the “activity at doses tested” value is “inactive”.

For the compound Z/E-nepetalactone [ZE-Neptalactone], in assay [1] (setting [5]), the “Mean/trap/visit ± SE Yellowjackets” value was determined as 52.1 ± 16.2 cd wasps/trap/visit. In assay [2] (setting [5]), the “Mean/trap/visit ± SE Paper wasps” value was found to be 11.3 ± 4.5 c wasps/trap/visit. For the same compound, the “repellency on either yellowjackets or paper wasps or both to the attractant AA/2 MB” value in assay [3] is reported as “partially significant repellency”.

With `COc1ccc(C)cc1` [4-Methylanisole, 4-methylanisole], the “Mean/trap/visit ± SE Yellowjackets” value in assay [1] (setting [8]) amounted to 10.0 ± 5.0 b wasps/trap/visit. For the same compound, the “Mean/trap/visit ± SE Paper wasps” value in assay [2] (setting [8]) is listed as 0.9 ± 0.5 a wasps/trap/visit. The “antennal (EAD) response to component of ylang ylang oil” value in assay [4] (setting [9]) is “strong and repeatable antennal responses”. Also, the “repellency to either yellowjackets or paper wasps” value in assay [3] (Experiment 11, AA/2 MB, at 90 mg/day release) was “did not show significant repellency”.

As for `CC1=CCC(O)(C(C)C)CC1` (centres unmarked) [4-Terpineol, 4-terpineol], the “Mean/trap/visit ± SE Yellowjackets” value in assay [1] (setting [6]) amounted to 23.3 ± 5.6 b wasps/trap/visit. In addition, the “Mean/trap/visit ± SE Paper wasps” value in assay [2] (setting [6]) amounted to 2.0 ± 0.7 ab wasps/trap/visit. Also, the “antennal (EAD) response to component of rosemary oil” value in assay [4] was “significant EAD-responses”. The “activity at doses tested” value in assay [3] (AA/2 MB) was “inactive”.

With `CC(C)=CCC/C(C)=C/CO` [Geraniol, geraniol], the “Mean/trap/visit ± SE Yellowjackets” value in assay [1] (setting [10]) is 21.8 ± 6.0 cd wasps/trap/visit. Moreover, in assay [2] (setting [10]), the “Mean/trap/visit ± SE Paper wasps” value worked out at 2.9 ± 0.9 b wasps/trap/visit. Besides, in assay [4] (setting [7]), the “antennal (EAD) response to component of geranium oil” value is “significant and consistent EAD-responses”. In addition, the “repellency at the dose tested” value in assay [3] (Experiment 10, AA/2 MB) was “not different from the attractant alone”.

As to `C=C(C)[C@H]1CC=C(C)C(=O)C1` [d-Carvone, d-carvone], the “Mean/trap/visit ± SE Yellowjackets” value in assay [1] (setting [10]) was determined as 4.9 ± 2.2 ab wasps/trap/visit. For the same compound, the “Mean/trap/visit ± SE Paper wasps” value in assay [2] (setting [10]) is on record as 0.9 ± 0.5 a wasps/trap/visit. Besides, in assay [4] (setting [7]), the “antennal (EAD) response to component of spearmint oil” value is “significant and consistent EAD-responses”.

On to `CC1=CCC(C(C)(C)O)CC1` (stereo not drawn) [α-Terpineol, α-terpineol], for which the “Mean/trap/visit ± SE Yellowjackets” value in assay [1] (setting [6]) is given as 21.9 ± 5.7 b wasps/trap/visit. Also, in assay [2] (setting [6]), the “Mean/trap/visit ± SE Paper wasps” value was 2.2 ± 0.9 ab wasps/trap/visit. Further, the “antennal (EAD) response to component of rosemary oil” value in assay [4] was “significant EAD-responses”. The “activity at doses tested” value in assay [3] (AA/2 MB) is “inactive”.

In the case of α/β-thujone, the “Mean/trap/visit ± SE Yellowjackets” value in assay [1] (setting [10]) was 4.9 ± 1.6 ab wasps/trap/visit. In addition, the “Mean/trap/visit ± SE Paper wasps” value in assay [2] (setting [10]) turned out to be 0.2 ± 0.1 a wasps/trap/visit. For the same compound, in assay [4] (setting [9]), the “antennal (EAD) response to component of sage oil” value was “strong and repeatable antennal responses”.

For `CC1=CC(=O)[C@H]2C[C@@H]1C2(C)C` [(−)-Verbenone, (−)-verbenone], in assay [1] (setting [6]), the “Mean/trap/visit ± SE Yellowjackets” value is reported as 18.7 ± 5.9 b wasps/trap/visit. Besides, in assay [2] (setting [6]), the “Mean/trap/visit ± SE Paper wasps” value came out at 2.9 ± 0.9 ab wasps/trap/visit. In assay [3] (AA/2 MB), the “activity at doses tested” value was “inactive”.
